In patent US20100280231A1, “WHITENING AGENT COMPRISING EQUOL OR ITS SACCHARIDE DERIVATIVE AS AN EFFECTIVE INGREDIENT” (priority 2007, published 2010):
Where two headings read alike, the source gives them in different places.

Tests used:
[1] = system: skin of the upper arm of volunteers; test: Safety test, application on the upper arm of volunteers; details: 3 parts by weight (equol equivalent) in ethanol/glycerol/water base, 1-cm square, three times a day for three days, five volunteers each, observed for the next week
[2] = system: Mouse B16 melanoma cells; test: Test of whitening effect in vitro (melanin production); assay type: cell-based; design: key to Determination of whitening effect: −: Not changed; ±: Slightly whitened; +: A little whitened; ++: Significantly whitened; +++: Completely whitened; details: for Determination of whitening effect: B16 melanoma cells, 4 days; for Melanin Production: negative control 73.9; for EC50: Mus musculus, B16, concentration giving half of the melanin production of the negative control, read-out: ED50 (the source's name)
Description: Three equol glycoside preparation prepared in Experiment 1, i.e. the solution containing reaction products (a solution containing 4′-O-α-D-glucopyranosyl-S-equol and 7-O-α-D-glucopyranosyl-S-equol, hereinafter, described as “equol glycoside containing solution”), 4′-O-α-D-glucopyranosyl-S-equol and 7-O-α-D-glucopyranosyl-S-equol, and the equol used in Experiment 1 were used as test samples, and the following experiment was carried out to determine their whitening effect. Mouse B16 melanoma cells suspended in RPMI-1640 medium containing 10 v/v % fetal calf serum (hereinafter, abbreviated as “FCS”) were inoculated into “6-MULTIWELL MICROPLATE” (6-well microplate commercialized by Becton, Dickinson and Company) to give a cell concentration of 4×10^4 cells/well. After the cells were adhered to the bottom of well, the culture supernatant was removed. The cells were admixed with equol or any one of the three equol glycoside samples, diluted with the same medium to give the concentration described in Table 2, and then cultured at 37° C. in an atmosphere of 5 v/v % CO2 for four days. The cells were collected after admixed with trypsin-EDTA, washed once with Dulbecco's PBS (−) (hereinafter, abbreviated as “D-PBS”), and then dissolved in 1N-sodium hydroxide. A part of the solution was used to determine the amount of protein. The above alkaline solution was boiled for 30 minutes and the amount of melanin was measured. […] Also ED50 (the concentration of the test sample giving half of the melanin production in the cell cultured with negative control) is shown in Table 2. The medium alone was used as negative control, and koji acid, which has been used as a whitening substance for external dermatological composition, was used as positive control at the concentration described in Table 2 (0.5 to 2 mM), to evaluate the whitening effect. The evaluation of whitening effect and measurement of melanin, protein and equol glycosides were carried out as follows.
The melanin production was determined by comparing the absorbance at 450 nm (reference 650 nm) of each alkaline solution to that of melanin standard (Sigma Corporation), measured with “MICROPLATE READER M-Vmax” (commercialized by Wako Pure Chemical Industries Co., Ltd.).
The amount of protein was determined by Bradford method using human serum album bumin as standard.
The concentration of equol glycoside in the powdery product used in the following experiments were determined by the same method as used in Experiment 1, based on the molar absorption coefficient of equol measured at UV 280 nm.

[3] = system: mouse 3T3-L1 cell line (precursor lipocyte); test: Effect on differentiation of precursor lipocyte into lipocyte (oil red O staining); assay type: cell-based; details: for Concentration enhancing differentiation of precursor lipocyte into mature lipocyte: Table 3, compared to control; for Enhancing effect on differentiation into lipocyte: with 10 μg/ml insulin, 12 days, relative absorbance, control = 100%, * p < 0.05 vs control
Description: It is known that mouse 3T3-L1 cell line (precursor lipocyte) differentiates into mature lipocyte when cultured in the presence of a differentiation inducer, and accumulates oil droplet in the cell according to the progress of differentiation. The mouse 3T3-Li cells were suspended in a medium, which is Dulbecco's MEM medium (hereinafter, abbreviated as “D-MEM”) supplemented with FCS (final concentration of 10 v/v %) and glucose (final concentration of 3 mg/ml), (hereinafter, described as “regular medium”) to give a cell concentration of 2.5×10^4 cells/well, and inoculated to “CELL CULTURE 24-MULTIWELL MICROPLATE” (24-well microplate coated with collagen type 1, commercialized by Becton, Dickinson and Company) by 1 ml/well. After the cells were cultured at 37° C. in an atmosphere of 5 v/v % CO2 for two days, the supernatant was removed and the remaining cells were admixed with a medium containing 10 μg/ml insulin and equol or equol glycosides dissolved in 50% ethanol, to give a concentration in Table 3, by 1 ml/well and then cultured for 12 days while replacing the medium every two or three days. After each well of the plate was washed with “D-PBS” three times, D-PBS containing 10% formalin was added by 0.2 ml/well, and then the cell was placed at 4° C. for one hour for fixation. After the fixing fluid was removed, a staining fluid of oilred O was added by 0.15 ml/well, and allowed to react at ambient temperature for 15 minutes to stain the lipid droplet in 3T3-L1 cell. After the staining fluid was removed, each well was washed with distilled water three times, and then the plate was dried. After the pigment in each well was dissolved in 0.4 ml of isopropanol, the absorbance of the resulting solution was measured at 490. The progress of the cell differentiation was expressed with relative absorbance to the absrobance of the cell cultured with control regarded as 100%.

[4] = system: mouse 3T3-L1 cells differentiated into mature cells; test: Test for lipid hydrolysis (glycerol release from mature lipocytes); assay type: cell-based; details: for Enhancing effect on lipid hydrolysis: glycerol per cell protein, 6 hours, control 274, * p < 0.05 vs control
Description: After the culture supernatant of mouse 3T3-L1 cells cultured under the same condition described above was removed, a regular medium containing 5 μg/ml insulin, 0.25 μM dexamethasone and 0.5 mM 3-isobutyl-1-methylxanthin was added by 1 ml/well, and then the cells were cultured for two days to differentiate into mature cells. After the supernatant was removed, the cells were washed with D-PBS three times and cultured with regular medium for 12 days while replacing the medium every two or three days by 1 ml/well. After the supernatant was removed and the cells were washed with D-PBS two times, a solution containing equol or equol glycosides diluted with D-MEM containing 1% bovine serum albumin to give the concentration described in Table 4 was added by 0.25 ml/well, and then the cell was cultured for 6 hours. After the supernatant was collected, the amount of glycerol was measured to determine the amount of the degraded lipid. After the supernatant was removed and the cells were washed with D-PBS three times, D-PBS containing 0.25% Triton X-100 was added to collect the cells, and then the cells were sonicated to give a cell-dissolving solution. The amount of protein of the sonicated cells was measured by Bradford method as in Experiment 3, and the amount of glycerol per cell protein representing degree of lipid degradation was shown in Table 3. The amount of glycerol was measured with “GLYCEROL REGENT A” (glycerol measurement kit commercialized by Zen-Bio, Inc.).

[5] = system: estrogen-receptor; details: Kenneth D. R. et al., Am. J. Clin. Nutr. 81, 1072-1079 (2005); cited from earlier work
[6] = system: skin of the upper arm of volunteers; details: human, in vivo

## OC[C@H]1O[C@H](Oc2ccc([C@@H]3COc4cc(O)ccc4C3)cc2)[C@H](O)[C@@H](O)[C@@H]1O [4′-O-α-D-glucopyranosyl-R-equol]
[1]
  Condition of the skin after application: no rough dry skin or rubor

## OC[C@H]1O[C@H](Oc2ccc3c(c2)OC[C@@H](c2ccc(O)cc2)C3)[C@H](O)[C@@H](O)[C@@H]1O [7-O-α-D-glucopyranosyl-R-equol]
[1]
  Condition of the skin after application: no rough dry skin or rubor

## Oc1ccc(C2COc3cc(O)ccc3C2)cc1 (centres unmarked) [Equol, equol]
[2]; sample concentration 5 μM
  Determination of whitening effect: ++
  Melanin Production: 36.8 μg/mg-cell protein
[2]; sample concentration 10 μM
  Determination of whitening effect: +++
  Melanin Production: 30.7 μg/mg-cell protein
[2]; sample concentration 20 μM
  Determination of whitening effect: +++
  Melanin Production: 29.8 μg/mg-cell protein
[2]; equol 5 μM to 20 μM, Table 2
  Whitening efficiency compared to positive control: approximately the same as that of 1 mM koji acid
[3]
  Concentration enhancing differentiation of precursor lipocyte into mature lipocyte: ≥ 5 µM
[3]; sample 5 μM
  Enhancing effect on differentiation into lipocyte: 194* %
[3]; sample 20 μM
  Enhancing effect on differentiation into lipocyte: 430* %
[4]; Table 3, compared to control
  Concentration enhancing degradation of triglyceride accumulated in lipocyte: ≥ 5 µM
[4]; sample 5 μM
  Enhancing effect on lipid hydrolysis: 392* μg/mg-cell protein
[4]; sample 20 μM
  Enhancing effect on lipid hydrolysis: 679* μg/mg-cell protein
[4]; sample 80 μM
  Enhancing effect on lipid hydrolysis: 1119* μg/mg-cell protein

## S-equol
[5]
  Estrogenic activity according to the affinity to the receptor: higher than that of R-equol

## O=c1cc(CO)occ1O [Koji cid, koji acid, reference compound]
[2]; sample concentration 1 mM
  Determination of whitening effect: +
  Melanin Production: 57.1 μg/mg-cell protein
[2]; sample concentration 2 mM
  Determination of whitening effect: ++
  Melanin Production: 47.5 μg/mg-cell protein
[2]; sample concentration 4 mM
  Determination of whitening effect: +++
  Melanin Production: 37.7 μg/mg-cell protein

## OCC1O[C@H](Oc2ccc3c(c2)OC[C@H](c2ccc(O)cc2)C3)[C@@H](O)C(O)[C@@H]1O (stereo partly drawn) [7-O-α-D-glucopyranosyl-S-equol]
[2]; sample concentration 5 μM
  Determination of whitening effect: +
  Melanin Production: 54.8 μg/mg-cell protein
[2]; sample concentration 10 μM
  Determination of whitening effect: +
  Melanin Production: 48.4 μg/mg-cell protein
[2]; sample concentration 20 μM
  Determination of whitening effect: ++
  Melanin Production: 43.0 μg/mg-cell protein
[2]
  EC50: 27.3 µM
[3]
  Concentration enhancing differentiation of precursor lipocyte into mature lipocyte: 80 µM
[3]; sample 5 μM
  Enhancing effect on differentiation into lipocyte: 96%
[3]; sample 20 μM
  Enhancing effect on differentiation into lipocyte: 101%
[3]; sample 80 μM
  Enhancing effect on differentiation into lipocyte: 253* %
[4]; sample 5 μM
  Enhancing effect on lipid hydrolysis: 265 μg/mg-cell protein
[4]; sample 20 μM
  Enhancing effect on lipid hydrolysis: 312* μg/mg-cell protein
[4]; sample 80 μM
  Enhancing effect on lipid hydrolysis: 374* μg/mg-cell protein
[6]
  Condition of the skin after application: no rough dry skin or rubor

## OCC1O[C@H](Oc2ccc([C@H]3COc4cc(O)ccc4C3)cc2)[C@@H](O)C(O)[C@@H]1O (stereo partly drawn) [4′-O-α-D-glucopyranosyl-S-equol]
[2]; sample concentration 5 μM
  Determination of whitening effect: +
  Melanin Production: 57.1 μg/mg-cell protein
[2]; sample concentration 10 μM
  Determination of whitening effect: +
  Melanin Production: 55.0 μg/mg-cell protein
[2]; sample concentration 20 μM
  Determination of whitening effect: ++
  Melanin Production: 48.2 μg/mg-cell protein
[2]
  EC50: 38.8 µM
[3]
  Concentration enhancing differentiation of precursor lipocyte into mature lipocyte: 80 µM
[3]; sample 5 μM
  Enhancing effect on differentiation into lipocyte: 92%
[3]; sample 20 μM
  Enhancing effect on differentiation into lipocyte: 107%
[3]; sample 80 μM
  Enhancing effect on differentiation into lipocyte: 217* %
[4]; sample 5 μM
  Enhancing effect on lipid hydrolysis: 272 μg/mg-cell protein
[4]; sample 20 μM
  Enhancing effect on lipid hydrolysis: 320* μg/mg-cell protein
[4]; sample 80 μM
  Enhancing effect on lipid hydrolysis: 401* μg/mg-cell protein
[6]
  Condition of the skin after application: no rough dry skin or rubor
